Tested on: TWNT-1 (CVCL J364) hepatic stella cells
Details: incubation 2 days
Description: In the case of this assay kit, it is necessary to note that, although the sorafenib@siRNP can be dissolved in phosphate-buffered saline (PBS), free sorafenib is required to be dissolved in dimethylsulfoxide (DMSO).

CNC(=O)c1cc(Oc2ccc(NC(=O)Nc3ccc(Cl)c(C(F)(F)F)c3)cc2)ccn1 [sorafenib]
inhibition of proliferation of TWNT-1: inhibits the proliferation of TWNT-1

Reference: patent US12049543B2, “Copolymer containing cyclic nitroxide radical and trialkoxysilyl in side chain, and use thereof” (CrestecBio Inc., priority 2017, dated 2024)
